Experimental data: PMC8783508, “A novel D-amino acid peptide with therapeutic potential (ISAD1) inhibits aggregation of neurotoxic disease-relevant mutant Tau and prevents Tau toxicity in vitro” (Alzheimer's Research & Therapy, 2022)
Non-standard residues stand in square brackets, D forms with d. Residues, ends and D or L forms follow the SMILES beside them.

Key:
N2a-Tau^RDΔK cells [1] = test: MTT, toxicity of externally added Tau^RDΔK aggregates; assay type: cell-based; conditions: Tau^RDΔK pre-incubated with peptide 1:10, 24 h, 37 °C; 10 μM Tau, 100 μM peptide final, 24 h on cells, n = 3
Method: Cell viability was analyzed in accordance with the manufacturer’s protocol (Roche Diagnostics, Mannheim, Germany; cell proliferation kit II (MTT)). This assay is based on the cleavage of the yellow tetrazolium salt MTT into purple formazan dye by metabolic active cells. The color changes only in viable cells and can be directly quantified using a scanning multiwell spectrophotometer. In all experiments, the cells were grown as described previously. The cells (25,000 cells/well or 80% confluence) were plated on poly D-lysine-coated 96-well plates (Greiner Bio-One GmbH, Frickenhausen, Germany) for stronger attachment from overnight to 24 h at 37 °C. Fibrillized Tau^RDΔK was generated by incubating 200 μM Tau^RDΔK in BES buffer at 37 °C for 24 h in the presence of 2 mM D-peptides (Tau^RDΔK:peptide = 1:10). Successful fibrillization was verified using ThS (5 μM Tau^RDΔK, 10 μM ThS) measurement. The aggregated Tau^RDΔK (10 μM final concentration), Tau^RDΔK (10 μM) + peptide (100 μM) samples (ISAD1 and ISAD1rev), buffer only (negative control, set to 100% cell viability), and TritonX-100 (2%, cytotoxic agent, positive control) were incubated on N2a-Tau^RDΔK cells (100 μl solution) for another 24 h. The cell viability was measured in accordance with the manufacturer’s protocol.

Tau^FLΔK = molecular target: T1, Tau^FLΔK (Homo sapiens, UniProt P10636, DEL597-597); test: Fibrillization of Tau^FLΔK monitored by ThS assay; assay type: biochemical; conditions: Tau:peptide = 1:1; 1:5; 1:10
T1 construct: Tau^FLΔK Full-length Tau mutant ΔK280
Method: (§1) For Tau fibrillization inhibition assays, 10 μM Tau mutant protein (Tau^RDΔK, Tau^FLΔK, Tau^FL-A152T, Tau^FL-P301L) was incubated in BES buffer (N,N-bis(2-hydroxyethyl)-2-aminoethanesulfonic acid, pH 7) in the presence of 2.5 μM heparin at 37 °C for 24 h with and without novel D-peptides (ISAD1 and ISAD1rev) at different concentrations (1 nM to 200 μM). Final concentration of 20 μM ThS was used for monitoring fibrillization. The assay was performed with 40-μl sample volume per well in a 384-well microtiter plate (Thermo LabSystems, Dreieich, Germany). The fibrillization of Tau was monitored by ThS and the relative fluorescence intensity of ThS was read out at 440 excitation/521 emission nm in a Tecan micro titer plate reader (Tecan, Männedorf, Switzerland).

Tau^FL-P301L = molecular target: T2, Tau^FL-P301L (Homo sapiens, UniProt P10636, P618L); test: Fibrillization of Tau^FL-P301L monitored by ThS assay; assay type: biochemical; conditions: Tau:peptide = 1:1; 1:5; 1:10
T2 construct: Tau^FL-P301L Full-length Tau mutant P301L
Method: as §1

Tau^RDΔK = molecular target: T3, Tau^RDΔK (Homo sapiens, UniProt P10636, DEL597-597); test: Pelleting assay and western blot, Tau^RDΔK; assay type: biochemical; conditions: 10 μM Tau, 100 μM peptide, 24 h, 61,000 rpm 60 min, K9JA western blot
T3 construct: Tau^RDΔK Pro-aggregant repeat domain Tau mutant ΔK280; made in house
Method: After the ThS assay (end time point, 24 h), 70 μl of each sample (pooled together from 2 wells) was centrifuged in a Beckmann coulter (Optima Max Ultra Centrifuge, TLA 100.3 rotor) at 61,000 rpm for 60 min at 4 °C. After centrifugation, the supernatant was separated from the pellet. Then, the pellet was dissolved in BES buffer in an equal volume as the supernatant. For the following western blot, 12-μl samples were mixed with 3-μl SDS-sample buffer (5x), heated for 5 min at 95 °C, and loaded onto a 8–16% SDS tris-glycine-gel (BioRad, Feldkirchen, Germany). The proteins were transferred to a polyvinylidene fluoride (PVDF) membrane. After the transfer, the membrane was blocked in 5% non-fat dry milk. After washing the membrane three times for 10 min with TBST, the primary pan-Tau K9JA antibody (1:5000; Agilent, Waldbronn, Germany) was incubated for 1 h at RT with gentle agitation, followed by again 3-times washing with TBST. For detection on western blot, the secondary antibody (goat anti-rabbit HRP, Agilent, Waldbronn, Germany) was incubated in a 1:2000 dilution for 1 h at RT with shaking. […] The quantification of intensities was performed using ImageJ.

N2a-Tau^RDΔK cells [2] = test: LDH release, intracellularly expressed Tau^RDΔK (Dox induced); assay type: cell-based; conditions: 1 μg/ml doxycycline, peptide 25, 50, 100, 250 μM, n = 2
Method: After the N2a-Tau^RDΔK cells reached the desired confluence (25,000 cells/well or 80%), intracellular Tau^RDΔK expression was induced by the addition of 1 μg/ml Dox. The cells were plated on poly D-lysine-coated 96-well plates (Greiner Bio-One GmbH, Frickenhausen, Germany) and treated with ISAD1 and ISAD1rev in a concentration range of 25 to 250 μM. TritonX-100 (2%) was used as a positive control. The incubation and Tau^RDΔK expression time was 72 h. Following incubation, cell viability was studied by measuring MTT and LDH release in accordance with the manufacturer’s protocol.

N2a-Tau^RDΔK cells [3] = test: ROS measurement (DCF), externally added Tau^RDΔK aggregates; assay type: cell-based; conditions: 10 μM Tau, 100 μM peptide final, pre-incubated, 30 min, n = 3
Method: Toxic Tau oligomers and fibrils can induce the production of superoxides and peroxy radicals in cells which can be measured with fluorescent dye dichlorodihydrofluorescein (DCF). N2a-Tau^RDΔK cells were plated on D-lysine-coated 96-well plates. At 70 to 80% confluence, the cells were washed once with warm PBS and then incubated with 20 μM of DCF (Abcam, Cambridge, UK) diluted in 1X dilution buffer for 30 min at 37 °C. After 30 min, the cells were washed once with 1X PBS. After washing, the cells were incubated with desired concentrations of different samples (10 μM oligomers/fibrils ± treated with 100 μM D-peptides or controls) for 30 min. The cytotoxic agent TBHP (tert-butylhydroperoxide) was used as the positive control. The fluorescence intensity was measured using a spectrofluorometer (Tecan, Männedorf, Switzerland; excitation at 485 nm and emission at 535 nm).

T1 sequence (P10636 with tags, fused parts or gaps isoform P10636-8 DEL280-280): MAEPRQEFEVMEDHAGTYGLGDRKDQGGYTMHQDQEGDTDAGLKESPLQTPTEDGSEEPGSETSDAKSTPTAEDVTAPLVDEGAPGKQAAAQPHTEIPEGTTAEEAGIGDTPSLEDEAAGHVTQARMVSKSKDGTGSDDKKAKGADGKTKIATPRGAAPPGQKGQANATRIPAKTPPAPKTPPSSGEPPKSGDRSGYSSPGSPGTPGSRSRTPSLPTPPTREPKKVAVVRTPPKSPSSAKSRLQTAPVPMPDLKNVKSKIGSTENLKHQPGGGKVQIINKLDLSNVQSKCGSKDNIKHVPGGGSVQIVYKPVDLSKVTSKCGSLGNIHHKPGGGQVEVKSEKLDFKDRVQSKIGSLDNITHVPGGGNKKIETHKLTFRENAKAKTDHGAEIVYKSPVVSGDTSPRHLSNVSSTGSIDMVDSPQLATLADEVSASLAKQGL
T2 sequence (P10636 1-441 isoform P10636-8 P301L): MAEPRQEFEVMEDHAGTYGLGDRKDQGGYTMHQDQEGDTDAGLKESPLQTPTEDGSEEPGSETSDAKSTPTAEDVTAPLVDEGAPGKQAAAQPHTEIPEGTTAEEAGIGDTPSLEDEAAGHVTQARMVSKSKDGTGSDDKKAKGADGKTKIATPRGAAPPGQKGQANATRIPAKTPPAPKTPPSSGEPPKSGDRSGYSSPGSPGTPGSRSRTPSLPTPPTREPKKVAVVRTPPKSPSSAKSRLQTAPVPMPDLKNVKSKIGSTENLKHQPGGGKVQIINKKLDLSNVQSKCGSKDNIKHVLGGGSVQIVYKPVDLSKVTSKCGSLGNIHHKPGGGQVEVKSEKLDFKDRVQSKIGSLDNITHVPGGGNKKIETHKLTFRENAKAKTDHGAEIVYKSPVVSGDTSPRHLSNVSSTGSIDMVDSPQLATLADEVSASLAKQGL
T3 sequence (P10636 with tags, fused parts or gaps DEL597-597): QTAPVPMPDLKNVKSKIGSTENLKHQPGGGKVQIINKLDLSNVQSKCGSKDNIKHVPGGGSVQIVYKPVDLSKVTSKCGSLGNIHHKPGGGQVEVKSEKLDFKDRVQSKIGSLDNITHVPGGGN

CC(C)C[C@@H](NC(=O)[C@@H](CO)NC(=O)[C@@H](CC(C)C)NC(=O)[C@H](NC(=O)[C@@H](CC(=O)O)NC(=O)[C@@H](C)NC(=O)[C@@H](C)NC(=O)[C@H](N)CO)[C@H](C)O)C(=O)N[C@H](CCCCN)C(=O)N[C@H](Cc1ccccc1)C(=O)N[C@@H](C(=O)N[C@H](CO)C(=O)O)C(C)C [ISAD1rev] (H-[dS][dA][dA][dD][dT][dL][dS][dL][dK][dF][dV][dS]-OH; N-terminus and C-terminus assumed)
Effect on toxicity of Tau aggregates, cell viability (MTT) (N2a-Tau^RDΔK cells [1]): preserving cell viability
Inhibition of Tau^FLΔK fibrillization, in words (Tau^FLΔK): weak inhibitory effects
Inhibition of Tau^FL-P301L fibrillization, in words (Tau^FL-P301L): weak inhibitory effects
Distribution of Tau^RDΔK between pellet and supernatant (Tau^RDΔK): only apparent in the pellet
Effect on LDH release of cells expressing Tau^RDΔK (N2a-Tau^RDΔK cells [2]): Protection of cell membrane integrity
Effect on toxicity of Tau aggregates, ROS level (N2a-Tau^RDΔK cells [3]): reducing intracellular ROS levels
